Data: patent US20130158362A1 (INFACARE PHARMACEUTICAL CORPORATION, priority 2011, published 2013)

System: total serum bilirubin (TSB)
Assay: Phase 2b trial: total serum bilirubin (TSB), adjusted and unadjusted, change from baseline
Assay type: in vivo, human
Set-up: total serum bilirubin / total serum bilirubin, Delta (change from baseline) / Change from baseline of total serum bilirubin: unit not given here
Conditions: for total serum bilirubin / total serum bilirubin, Delta (change from baseline): 48 hours, preliminary data; for change from baseline in adjusted TSB, LS mean difference versus placebo, MMRM / change from baseline in adjusted TSB, LS means (SEM), MMRM: observed case
Experimental: Three cohorts of subjects were recruited. This clinical study was designed to evaluate safety and efficacy parameters in each cohort.
Scheduled assessments (including TSB) occurred before treatment and at 0.75 and 2 hours (or 1.5 and 3 hours, depending on PK blood sampling assignment); 6, 12, 24, 48, and 72 hours; and 14 and 30 (except TSB) days after treatment or early termination.
The primary efficacy endpoint was the change in adjusted TSB from baseline to 48 hours after treatment. The adjusted TSB was a calculation of the percentage variance of the TSB level from the age specific threshold for PT initiation per the AAP Guidelines, i.e., an indication of the distance below the PT threshold by time.
The Secondary Efficacy Endpoints were the change from baseline in unadjusted TSB at 48 hours after treatment, change from baseline in adjusted and unadjusted TSB at various other time points after treatment, percent change from baseline in unadjusted TSB, proportion of subjects who require PT/exchange transfusion (ET), time to PT/ET, duration of PT and time to hospital discharge.
Intent-to-treat population (ITT): Defined as all subjects who were randomly assigned treatment in the clinical study, had received IMP, and had at least 1 post baseline TSB measurement during the first 48 hours after treatment. Subjects were summarized based on randomized treatment.
Analysis of Efficacy Parameters: The primary efficacy analysis applied the analysis of covariance (ANCOVA) method to determine if there was a significant difference between treatment groups in change in adjusted TSB levels from baseline to 48 hours post baseline after controlling for the effects of gestational age and adjusted baseline TSB levels. If assumptions of ANCOVA appeared to be violated, a Wilcoxon rank-sum test could be performed instead. Time-to-event variables were analyzed using the Kaplan-Meier method, and Kaplan-Meier survival curves were presented.

[1] = 1.5 mg/kg IM, 6 h, ITT, LOCF, ANCOVA
[2] = 1.5 mg/kg IM, 12 h, ITT, LOCF, ANCOVA
[3] = 1.5 mg/kg IM, 24 h, ITT, LOCF, ANCOVA
[4] = 1.5 mg/kg IM, 48 h/early termination, ITT, LOCF
[5] = 1.5 mg/kg IM, 48 h, ITT, LOCF, ANCOVA
[6] = 1.5 mg/kg IM, 72 h, ITT, LOCF, ANCOVA
[7] = 1.5 mg/kg IM, 14 days/early termination, ITT, LOCF
[8] = 1.5 mg/kg IM, 14 days/early termination, ITT, LOCF, ANCOVA
[9] = 1.5 mg/kg versus the placebo group, 48 Hours/Early termination, PP Population, ANCOVA
[10] = 1.5 mg/kg, 48 Hours/Early termination, PP Population, LOCF
[11] = 1.5 mg/kg, 6 hrs, unadjusted TSB, ITT Population

tin IV mesoporphyrin IX dichloride [Stannsoporfin]
total serum bilirubin (1.5 mg/kg IM (N = 10), treated per protocol): 10.96 ± 1.8 | adjusted TSB, Mean (SD) (1.5 mg/kg IM, 6 h, ITT, LOCF): −17.77 (13.326) % | change from baseline in adjusted TSB, Mean (SD) (1.5 mg/kg IM, 6 h, ITT, LOCF): 2.47 (7.928) % | change from baseline in adjusted TSB, Median (1.5 mg/kg IM, 6 h, ITT, LOCF): 2.80% | change from baseline in unadjusted TSB, Mean (SD) (1.5 mg/kg IM, 6 h, ITT, LOCF): 1.50 (0.861) mg/dL | change from baseline in unadjusted TSB, Median (1.5 mg/kg IM, 6 h, ITT, LOCF): 1.50 mg/dL | unadjusted TSB, Mean (SD) (1.5 mg/kg IM, 6 h, ITT, LOCF): 9.09 (2.175) mg/dL | unadjusted TSB, Median (1.5 mg/kg IM, 6 h, ITT, LOCF): 9.60 mg/dL | change from baseline in adjusted TSB, LS mean (SEM) [1]: 2.72 (2.053) % | change from baseline in adjusted TSB, LS mean difference versus placebo [1]: −1.67% | change from baseline in unadjusted TSB, LS Mean (SEM) [1]: 1.38 (0.242) mg/dL | change from baseline in unadjusted TSB, LS Mean Difference versus placebo [1]: -0.21 mg/dL | change from baseline in adjusted TSB, LS mean difference versus placebo, MMRM (1.5 mg/kg IM, 6 h, ITT): −1.44% | change from baseline in adjusted TSB, LS means (SEM), MMRM (1.5 mg/kg IM, 6 h, ITT): 2.94 (2.098) % | adjusted TSB, Mean (SD) (1.5 mg/kg IM, 12 h, ITT, LOCF): −17.41 (17.294) % | change from baseline in adjusted TSB, Mean (SD) (1.5 mg/kg IM, 12 h, ITT, LOCF): 2.83 (12.949) % | change from baseline in adjusted TSB, Median (1.5 mg/kg IM, 12 h, ITT, LOCF): 5.70% | change from baseline in unadjusted TSB, Mean (SD) (1.5 mg/kg IM, 12 h, ITT, LOCF): 2.22 (1.624) mg/dL | change from baseline in unadjusted TSB, Median (1.5 mg/kg IM, 12 h, ITT, LOCF): 2.50 mg/dL | unadjusted TSB, Mean (SD) (1.5 mg/kg IM, 12 h, ITT, LOCF): 9.82 (2.599) mg/dL | unadjusted TSB, Median (1.5 mg/kg IM, 12 h, ITT, LOCF): 10.20 mg/dL | change from baseline in adjusted TSB, LS mean (SEM) [2]: 4.54 (3.015) % | change from baseline in adjusted TSB, LS mean difference versus placebo [2]: −2.59% | change from baseline in unadjusted TSB, LS Mean (SEM) [2]: 2.21 (0.374) mg/dL | change from baseline in unadjusted TSB, LS Mean Difference versus placebo [2]: -0.39 mg/dL | change from baseline in adjusted TSB, LS mean difference versus placebo, MMRM (1.5 mg/kg IM, 12 h, ITT): −2.67% | change from baseline in adjusted TSB, LS means (SEM), MMRM (1.5 mg/kg IM, 12 h, ITT): 3.29 (2.731) % | adjusted TSB, Mean (SD) (1.5 mg/kg IM, 24 h, ITT, LOCF): −24.44 (18.927) % | change from baseline in adjusted TSB, Mean (SD) (1.5 mg/kg IM, 24 h, ITT, LOCF): −4.20 (16.064) % | change from baseline in adjusted TSB, Median (1.5 mg/kg IM, 24 h, ITT, LOCF): −4.30% | change from baseline in unadjusted TSB, Mean (SD) (1.5 mg/kg IM, 24 h, ITT, LOCF): 2.24 (2.084) mg/dL | change from baseline in unadjusted TSB, Median (1.5 mg/kg IM, 24 h, ITT, LOCF): 2.70 mg/dL | unadjusted TSB, Mean (SD) (1.5 mg/kg IM, 24 h, ITT, LOCF): 9.84 (2.656) mg/dL | unadjusted TSB, Median (1.5 mg/kg IM, 24 h, ITT, LOCF): 10.80 mg/dL | change from baseline in adjusted TSB, LS mean (SEM) [3]: −7.62 (4.320) % | change from baseline in adjusted TSB, LS mean difference versus placebo [3]: −7.53% | change from baseline in unadjusted TSB, LS Mean (SEM) [3]: 1.98 (0.549) mg/dL | change from baseline in unadjusted TSB, LS Mean Difference versus placebo [3]: -0.76 mg/dL | change from baseline in adjusted TSB, LS mean difference versus placebo, MMRM (1.5 mg/kg IM, 24 h, ITT): −3.77% | change from baseline in adjusted TSB, LS means (SEM), MMRM (1.5 mg/kg IM, 24 h, ITT): −5.33 (3.948) % | adjusted TSB, Mean (SD) [4]: −35.09 (19.198) % | adjusted TSB, Median [4]: −27.10% | change from baseline in adjusted TSB, Mean (SD) (1.5 mg/kg IM, 48 h, ITT, LOCF): −14.85 (15.442) % | change from baseline in adjusted TSB, Median (1.5 mg/kg IM, 48 h, ITT, LOCF): −12.30% | change from baseline in unadjusted TSB, Mean (SD) (1.5 mg/kg IM, 48 h, ITT, LOCF): 2.32 (2.560) mg/dL | change from baseline in unadjusted TSB, Median (1.5 mg/kg IM, 48 h, ITT, LOCF): 2.70 mg/dL | unadjusted TSB, Mean (SD) (1.5 mg/kg IM, 48 h, ITT, LOCF): 9.91 (3.116) mg/dL | unadjusted TSB, Median (1.5 mg/kg IM, 48 h, ITT, LOCF): 10.90 mg/dL | change from baseline in adjusted TSB, LS mean (SEM) (primary endpoint) [5]: −15.03 (5.273) % | change from baseline in adjusted TSB, LS mean difference versus placebo [5]: −13.45% | change from baseline in unadjusted TSB, LS Mean (SEM) [5]: 2.43 (0.842) mg/dL | change from baseline in unadjusted TSB, LS Mean Difference versus placebo [5]: -1.81 mg/dL | change from baseline in adjusted TSB, LS mean (SEM) (primary endpoint) (1.5 mg/kg IM, 48 h, ITT, LOCF, ANCOVA, listed as stannsoporfin): 15.0% | change from baseline in adjusted TSB, LS mean difference versus placebo, MMRM (1.5 mg/kg IM, 48 h, ITT): −8.26% | change from baseline in adjusted TSB, LS means (SEM), MMRM (1.5 mg/kg IM, 48 h, ITT): −14.94 (5.019) % | total serum bilirubin (1.5 mg/kg IM, intent to treat): 9.91 ± 3.1 | total serum bilirubin, Delta (change from baseline) (1.5 mg/kg IM, intent to treat): 2.32 ± 2.5 | total serum bilirubin, Delta (change from baseline) (1.5 mg/kg IM, treated per protocol): 3.44 ± 1.5 | adjusted TSB, Mean (SD) (1.5 mg/kg IM, 72 h/early termination, ITT, LOCF): −44.82 (19.254) % | change from baseline in adjusted TSB, Mean (SD) (1.5 mg/kg IM, 72 h, ITT, LOCF): −24.58 (15.743) % | change from baseline in adjusted TSB, Median (1.5 mg/kg IM, 72 h, ITT, LOCF): −22.10% | change from baseline in unadjusted TSB, Mean (SD) (1.5 mg/kg IM, 72 h, ITT, LOCF): 1.76 (2.790) mg/dL | change from baseline in unadjusted TSB, Median (1.5 mg/kg IM, 72 h, ITT, LOCF): 2.40 mg/dL | unadjusted TSB, Mean (SD) (1.5 mg/kg IM, 72 h, ITT, LOCF): 9.35 (3.409) mg/dL | unadjusted TSB, Median (1.5 mg/kg IM, 72 h, ITT, LOCF): 10.60 mg/dL | change from baseline in adjusted TSB, LS mean (SEM) [6]: −21.94 (6.232) % | change from baseline in adjusted TSB, LS mean difference versus placebo [6]: −17.19% | change from baseline in unadjusted TSB, LS Mean (SEM) [6]: 2.43 (1.077) mg/dL | change from baseline in unadjusted TSB, LS Mean Difference versus placebo [6]: -2.52 mg/dL | change from baseline in unadjusted TSB, Mean (SD) [7]: −4.08 (2.322) mg/dL | change from baseline in unadjusted TSB, Median [7]: -4.00 mg/dL | unadjusted TSB, Mean (SD) [7]: 3.52 (2.751) mg/dL | unadjusted TSB, Median [7]: 2.80 mg/dL | change from baseline in unadjusted TSB, LS Mean (SEM) [8]: −4.04 (1.258) mg/dL | change from baseline in unadjusted TSB, LS Mean Difference versus placebo [8]: -1.74 mg/dL | 48 Hours/Early termination change from baseline in unadjusted TSB, LS mean difference [9]: -0.97 mg/dL | P-value of LS mean difference, change from baseline in unadjusted TSB [9]: 0.338 | 48 Hours/Early termination change from baseline in unadjusted TSB, Max [10]: 5.2 mg/dL | 48 Hours/Early termination change from baseline in unadjusted TSB, Mean (SD) [10]: 3.44 (1.458) mg/dL | 48 Hours/Early termination change from baseline in unadjusted TSB, Median [10]: 3.40 mg/dL | 48 Hours/Early termination change from baseline in unadjusted TSB, Min [10]: 0.7 mg/dL | 48 Hours/Early termination unadjusted TSB, Max [10]: 12.8 mg/dL | 48 Hours/Early termination unadjusted TSB, Mean (SD) [10]: 10.96 (1.842) mg/dL | 48 Hours/Early termination unadjusted TSB, Median [10]: 11.35 mg/dL | 48 Hours/Early termination unadjusted TSB, Min [10]: 6.8 mg/dL | 48 Hours/Early termination change from baseline in unadjusted TSB, LS mean (SEM) (1.5 mg/kg, 48 Hours/Early termination, PP Population, LOCF, ANCOVA): 2.96 (0.868) mg/dL | 6 hrs Percent Change from Baseline in TSB, Max [11]: 42.0% | 6 hrs Percent Change from Baseline in TSB, Mean (SD) [11]: 20.13 (12.268) % | 6 hrs Percent Change from Baseline in TSB, Min [11]: −1.7% | 6 hrs TSB, Max [11]: 14.1 mg/dL
